Measured values taken from patent US9073909B2, “[1,3]oxazines” (HOFFMANN-LA ROCHE INC., priority 2011, dated 2015).

What was measured:
BACE1 [1] = biological target: T1, BACE1 (Homo sapiens, UniProt P56817); assay: Cellular Aβ-lowering assay (BACE1 cell act. Aβ40); assay type: cell-based; conditions: HEK293 cells stably expressing human APP695; Aβ40 in supernatant
T1 construct: from tissue; host or cells: human brain tissue slices
Description: a) Human HEK293 cells which are stably transfected with a vector expressing a cDNA of the human APP wt gene (APP695) were used to assess the potency of the compounds in a cellular assay. The cells were seeded in 96-well microtiter plates in cell culture medium (Iscove, plus 10% (v/v) fetal bovine serum, glutamine, penicillin/streptomycin) to about 80% confluence and the compounds were added at a 10× concentration in 1/10 volume of medium without FCS containing 8% DMSO (final concentration of DMSO was kept at 0.8% v/v). After 18-20 hrs incubation at 37° C. and 5% CO2 in a humidified incubator the culture supernatant was harvested for the determination of Aβ40 concentrations. […] After stopping the reaction with one volume 1 N H2SO4 the reaction was measured in an ELISA reader at 450 nm wavelength. The concentrations of Aβ in the culture supernatants were calculated from a standard curve obtained with known amounts of pure Aβ peptide. […]
In a Perkin-Elmer White Optiplate-384 (Cat#6007290), 2 μl culture supernatants were combined with 2 μl of a 10× AlphaLISA Anti-hAβAcceptor beads+Biotinylated Antibody Anti-Aβ 1-40 Mix (50 μg/mL/5 nM). […] Light Emission at 615 nm was then recorded using EnVision-Alpha Reader. Levels of Aβ40 in the culture supernatants were calculated as percentage of maximum signal (cells treated with 1% DMSO without inhibitor). […]

BACE1 [2] = conditions: baboon, i.v. bolus, PET 0 to 120 minutes
Description: The PET experiments were carried out in male baboons (papio anubis). Animals were fasted for 12 hours prior to the PET study. Baboons were initially sedated intramuscularly with Ketamine hydrochloride with restraint dosages of 5-7 mg/kg to achieve a superficial level of anesthesia and then maintained on continuous Propofol intravenous infusion @ 0.3-0.4 mg/kg/h ([…] ® Injectable Emulsion). Circulatory volume was maintained by infusion of isotonic saline. A femoral arterial catheter was inserted for blood sampling. Physiological vital signs including heart rate, ECG, blood pressure and oxygen saturation were continuously monitored throughout the study. The animal was positioned in an ECAT HRRT® brain PET scanner (High Resolution Research Tomograph, CPS Innovations, Inc., Knoxville, Tenn.). The head of the animal was fitted with a thermoplastic mask that was attached to a head holder for reproducible fixation. A 6 min transmission scan with a 1 mCi Cs-137 point source was initially done for attenuation correction. […] The radioactivity of a VOI at time T was calculated as the weighted mean and expressed in mCi/ml. […]
SUV (%)=radioactivity (nCi/ml)/106/(dose (mCi)/body weight (kg)×103)×100, where numbers were used to make the unit for radioactivity equivalent between voxel radioactivity and radioactivity dose (106) and between body weight and voxel volume (103).

BACE1 [3] = biological target: T2, BACE1 (Rattus norvegicus, UniProt P56819); assay: Ex vivo autoradiography in rats after i.v. tracer injection
T2 construct: from tissue; host or cells: rat brain (sagittal sections in vitro; brain of living rats for the ex vivo study)
T2 sequence (P56819 46-501): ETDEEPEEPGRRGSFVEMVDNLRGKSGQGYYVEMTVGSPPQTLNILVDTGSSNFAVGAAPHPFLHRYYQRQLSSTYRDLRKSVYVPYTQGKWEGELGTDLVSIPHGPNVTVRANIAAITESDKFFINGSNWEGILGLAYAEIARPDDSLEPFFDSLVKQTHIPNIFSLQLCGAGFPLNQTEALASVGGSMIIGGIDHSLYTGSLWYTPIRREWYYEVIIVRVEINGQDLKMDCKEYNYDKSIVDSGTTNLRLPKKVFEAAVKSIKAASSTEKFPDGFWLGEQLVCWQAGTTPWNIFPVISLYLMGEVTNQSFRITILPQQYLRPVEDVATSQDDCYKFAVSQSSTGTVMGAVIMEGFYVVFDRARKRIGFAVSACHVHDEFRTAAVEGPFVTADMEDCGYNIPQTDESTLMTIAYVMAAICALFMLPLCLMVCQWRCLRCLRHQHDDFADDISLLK
Description: The in vivo characteristics of [^3H]-5-but-2-ynyloxy-pyrazine-2-carboxylic acid [3-((R)-2-amino-5,5-difluoro-4-methyl-5,6-dihydro-4H-[1,3]oxazin-4-yl)-4-fluoro-phenyl]-amide for imaging BACE1 were analyzed by an ex vivo autoradiographical approach using young male Sprague-Dawley rats. Animals were intravenously injected with 1 mCi/kg [^3H]-5-but-2-ynyloxy-pyrazine-2-carboxylic acid [3-((R)-2-amino-5,5-difluoro-4-methyl-5,6-dihydro-4H-[1,3]oxazin-4-yl)-4-fluoro-phenyl]-amide corresponding to 37.7 nmol/kg and sacrificed at various time points post injection. To test the specificity of tracer binding in vivo, rats were pre-administered with 10 mg/kg of a reference BACE1 inhibitor ((S)-3-(3,6-dihydro-2H-pyran-4-yl)-7-(2-fluoropyridin-3-yl)-5′H-spiro[chromeno[2,3-c]pyridine-5,5′-oxazol]-2′-amine, CAS Nr 1215869-02-5; example 294 in WO2010030954) (p.o.) 3 h prior to tracer injection. Animals were sacrificed at various time points post injection (5, 15, 30, 60, 120 min p.i.), their brains were rapidly removed and frozen in dry ice powder. Ten μm-thick sagittal sections were cut in a Cryostat microtome and thaw-mounted on adhesion glass slides. Slide-mounted brain sections were dried under a flow of cold air for 3 h and exposed together with [^3H]-microscale to a Fuji Imaging plate for 5 days. The imaging plate was then scanned in a high resolution Fuji BAS reader. The total amount of radiotracer bound to the brain areas of interest (TB) was measured using the MCID image analysis program and expressed as fmol of bound radiotracer/mg of protein. The amount of [^3H]-5-but-2-ynyloxy-pyrazine-2-carboxylic acid [3-((R)-2-amino-5,5-difluoro-4-methyl-5,6-dihydro-4H-[1,3]oxazin-4-yl)-4-fluoro-phenyl]-amide specifically bound to BACE1 (SB) was calculated according to the formula SB=TB−NSB.

BACE1 [4] = biological target: T2, BACE1; assay: In vitro autoradiography in rat brain sections; assay type: binding
Source text: The distribution of [^3H]-5-but-2-ynyloxy-pyrazine-2-carboxylic acid [3-((R)-2-amino-5,5-difluoro-4-methyl-5,6-dihydro-4H-[1,3]oxazin-4-yl)-4-fluoro-phenyl]-amide binding sites as well as the binding specificity for BACE1 was investigated by in vitro autoradiography using male Sprague-Dawley rats. Animals were sacrificed, their brains were rapidly removed and frozen in dry ice powder. Ten μm-thick sagittal sections were cut in a Cryostat microtome and thaw-mounted on adhesion glass slides. Brain sections were first incubated for 10 min in Ringer buffer (NaCl 120 mM, KCl 5 mM, CaCl2 2 mM, MgCl2 1 mM, Tris-HCl 50 mM pH 7.4) at RT and then for 60 min in Ringer buffer containing either 1 nM or 10 nM [^3H]-5-but-2-ynyloxy-pyrazine-2-carboxylic acid [3-((R)-2-amino-5,5-difluoro-4-methyl-5,6-dihydro-4H-[1,3]oxazin-4-yl)-4-fluoro-phenyl]-amide. For the evaluation of non-specific-binding (NSB) of the radiotracer an additional series of sections was incubated with Ringer buffer containing the radiotracer and a reference BACE1 inhibitor ((S)-3-(3,6-dihydro-2H-pyran-4-yl)-7-(2-fluoropyridin-3-yl)-5′H-spiro[chromeno[2,3-c]pyridine-5,5′-oxazol]-2′-amine, CAS Nr 1215869-02-5; example 294 in WO2010030954) at 10 μM. At the end of the incubation, sections were rinsed 3×5 min in ice-cold Ringer buffer and then rapidly dipped once in distilled water at 4° C. Slide-mounted brain sections were dried under a flow of cold air for 3 h and exposed together with [^3H]-microscale to a Fuji Imaging plate for 5 days. The imaging plate was then scanned in a high resolution Fuji BAS reader. The total amount of radiotracer bound to the brain areas of interest (TB) was measured using the MCID image analysis program and expressed as fmol of bound radiotracer/mg of protein. The amount of [^3H]-5-but-2-ynyloxy-pyrazine-2-carboxylic acid [3-((R)-2-amino-5,5-difluoro-4-methyl-5,6-dihydro-4H-[1,3]oxazin-4-yl)-4-fluoro-phenyl]-amide specifically bound to BACE1 (SB) was calculated according to the formula SB=TB−NSB. […]

T1 sequence (P56817 46-501): as the sequence (P56819 46-501) above, with S82G, I162V, I165L, T180S, A182V, V340I, A393L, H443Q counted along it

Compound: CC#CCOc1cnc(C(=O)Nc2ccc(F)c([C@@]3(C)N=C(N)OCC3(F)F)c2)cn1 [Example 1, 5-But-2-ynyloxy-pyrazine-2-carboxylic acid [3-((R)-2-amino-5,5-difluoro-4-methyl-5,6-dihydro-4H-[1,3]oxazin-4-yl)-4-fluoro-phenyl]-amide]
- IC50 (BACE1 [1]): 1.1 nM

Compound: C[C@]1(c2cc(NC(=O)c3cnc(OCC#C[11CH3])cn3)ccc2F)N=C(N)OCC1(F)F [Example 3, [^11C]-5-But-2-ynyloxy-pyrazine-2-carboxylic acid [3-((R)-2-amino-5,5-difluoro-4-methyl-5,6-dihydro-4H-[1,3]oxazin-4-yl)-4-fluoro-phenyl]-amide]
- brain uptake of radiotracer (BACE1 [2]): rapidly taken up in multiple brain areas

Compound: [^3H]-5-But-2-ynyloxy-pyrazine-2-carboxylic acid [3-((R)-2-amino-5,5-difluoro-4-methyl-5,6-dihydro-4H-[1,3]oxazin-4-yl)-4-fluoro-phenyl]-amide [Example 2]
- in vivo binding after pre-treatment with BACE1 ligand A (specificity) (BACE1 [3]; 10 mg/kg reference BACE1 inhibitor p.o. 3 h prior to tracer injection): clearly reduced
- in vivo distribution pattern of binding (regions of highest accumulation) (BACE1 [3]; 1 mCi/kg i.v., ex vivo autoradiography): highest accumulation in the dentate gyms and the CA3 region of the hippocampus, the cerebellum, pallidum and substantia nigra
- wash-out kinetics of tracer binding (BACE1 [3]; 5, 15, 30, 60, 120 min post injection): favorable wash-out kinetics
- reduction of tracer binding (BACE1 [4]; 1 nM example 2 co-incubated with 10 μM specific BACE1 inhibitor A, rat brain sections): more than 80%
- brain regions with highest densities of binding sites (BACE1 [4]; male Sprague-Dawley rat sagittal brain sections): dentate gyms and the CA3 region of the hippocampus, the cerebellum, pallidum and substantia nigra
- distribution of binding sites in the rat brain (BACE1 [4]; male Sprague-Dawley rat sagittal brain sections, 1 nM or 10 nM tracer): widespread distribution
